Data published in patent US6642031B2, “Microorganisms with ability to degrade indole and enzymes therefrom” (Genencor International, Inc., priority 1995, dated 2003).
Values joined by “and” are separate entries in the source; they are usually repeats but may differ in a detail not shown here. Identical values can stand only once. Like-named read-outs stand apart in the source and are kept apart here.

Experiments:
[1] = system: Strain WW2 whole cells; assay: Whole cell oxygen uptake with indole and related substrates (Clark electrode oxygraph); type: cell-based, Pseudomonas putida; conditions: for Relative % (oxygen uptake rate) / Oxygen Uptake: substrate 0.6 mM; for Relative % (oxygen uptake rate): indole-dependent rate defined as 100%; for Oxygen Uptake: whole cells 4.5 h after indole induction, corrected for uptake without substrate
Description: (§1) Carbon utilization of WW2 was determined by its ability to grow on alternate carbon sources. The bulk of these were determined by Biolog assay. […] In addition, substrate-dependent oxygen consumption of whole resting cells was measured by oxygraph assay as described in Example 11.
(§2) Indole oxidation activity in whole cells was routinely determined by measuring oxygen uptake rates with a Biological Oxygen Monitor (Yellow Springs Instrument Co., model 5300, Ohio) equipped with a Clark electrode. Reactions were carried out in a stirred, 1.5 ml reaction chamber at 25° C. Washed cells of strain WW2 suspended in 50 mM Tris-HCl (pH 7.5) to an A600 of 2.0 were pre-equilibrated at 25° C. before their addition to the reaction chamber. After recording the endogenous oxygen uptake rate, indole or other substrates (100 mM in dimethylformamide) were added to a final concentration of 0.3 to 1 mM. […] Reported rates were corrected for oxygen uptake observed in the absence of substrate. In the case of indoxyl, the reported rate was also corrected for the spontaneous oxygen consumption rate of indoxyl oxidation in the absence of indole-induced cells.

[2] = system: indole oxidase; assay: Cell-free oxygen uptake in WW2 indole-induced cell extract; type: biochemical, Pseudomonas putida; conditions: for Oxygen Uptake: 1.82 mg/ml cell extract protein, 1 mM NADH, pH 7.5, corrected for uptake without substrate
[3] = system: indole oxidation activity in strain WW2 crude cell extract; assay: Cell-free indole-dependent NAD(P)H oxidation, cofactor requirements (spectrophotometric); type: biochemical, Pseudomonas putida
Description: Spectrophotometric assavs. Cell-free, indole-dependent NADH oxidation was measured spectrophotometrically with a Hewlett-Packard 8452A diode array spectrophotometer. The reactions (1.0 ml volume) contained crude soluble cytosolic fraction (SCF), 3.0 mM NADH, 2.0 mM indole and 50 mM Tris-HCl (pH 7.5). The reactions were initiated by addition of NADH and the initial rates were corrected for background NADH oxidation rates, which were measured in the absence of indole. NADPH was substituted for NADH to compare its ability to serve as an electron donor for indole oxidation activity.
Cofactor requirement of the indole oxidizing activity in the crude soluble cytosolic fraction was investigated in spectrophotometric assays as described in Example 6.

[4] = system: Strain WW2; assay: Induction and sustaining of indole oxidation activity in growing cultures (oxygen uptake with indole); type: cell-based, Pseudomonas putida; conditions: for Oxygen Uptake Rate, Rate 3 h After Re-Addition: re-addition (indole 0.2 g/l and/or succinate 2 g/l) to 4 h indole-induced cells, measured 7 h after initial induction
Text: Several methods were examined to induce cultures of strain Pseudomonas putida WW2 for indole oxidation during growth. These included growing the strain in MSB containing 0.2% succinate with: (i) a single addition of 0.02% indole and 0.2% succinate during late log phase; (ii) indole provided in the vapor phase, during growth, from a small cloth bag containing indole crystals suspended above the surface of the medium; or (iii) both indole vapor during growth and direct addition of 0.02% indole and 0.2% succinate during late log phase.
as §2

[5] = system: Pseudomonas putida strain WW2; assay: Growth on carbon sources in MSB liquid culture or agar plates; conditions: for support of growth as carbon source (words): MSB liquid medium or agar plates
Description: Cultivation of the organism. Growth was measured turbidimetrically at 600 nm. […] Additional potential carbon sources were assessed in MSB supplemented with the carbon alternate source (0.2% (w/v) unless specified otherwise) or on plates provided with volatile substrates in the vapor phase. Growth was also conducted in 14 L fermenters in the fed batch mode. […] To study enzyme activity of indole oxidase, the organism was cultured in 50 or 500 ml of media (in 250 ml or 2.8 L nominal volume flasks, respectively) containing minimal salts, succinate and 0.02% indole at 30° C. with rotary shaking (200 rpm).
as §1

[6] = system: indole oxidase; assay: Substrate depletion assay with cell extract, GC/MS and visible spectrum; type: biochemical, Pseudomonas putida
Description: Substrate depletion assays. Substrate depletion assays were carried out in 1.5 ml to 10 ml reactions containing crude SCF, 4.0 mM NADH or NADPH, 2.0 μM FAD, and 1.0 mM indole in 50 mM Tris-HCl (pH 7.5 or 8.0). Substrate and product concentrations were determined by incubating the reactions for the specified period of time with shaking at 250 rpm, extracting 1.0 ml of the aqueous reaction with ethyl acetate and analyzing the extract by gas chromatography-mass spectrometry (GC/MS) described below.
GC/MS was carried out with a Hewlett-Packard model 5890 gas chromatograph equipped with a Hewlett-Packard DB-5 capillary column (inside diameter 0.2 mm by 25 m) and a Hewlett-Packard model 5971 mass selective detector (electron impact ionization 70 eV). The column temperature was programmed from 50 to 325° C. at 10° C./min with a helium flow of 12 cm/s. Temperatures of the injection port and transfer line were 250 and 280° C., respectively.
After indole was completely consumed the reaction mixture was diluted into dimethylformamide (DMF) and the visible spectrum of the resultant blue solution was measured.

[7] = substrate 0.3 mM, indole = 100%

Structure (SMILES) | Relative % (oxygen uptake rate) [1] [%] | Oxygen Uptake [1] [O2 %/min/ODU] | Oxygen Uptake ([2]; substrate 0.3 mM) [O2 %/min/ODU] | Relative % (oxygen uptake rate) [2, 7] [%] | also measured
c1ccc2occc2c1 [2,3-Benzofuran] | 30 | 3.5 | 0 | 0 | –
Cc1c[nH]c2ccccc12 [3-Me-Indole] | – | – | 2 | 14 | –
Clc1cccc2[nH]ccc12 [4-Cl-Indole] | – | – | 0 | 0 | –
Cc1cccc2[nH]ccc12 [4-Me-Indole] | – | – | 1 | 7 | –
Oc1cccc2[nH]ccc12 [4-OH-Indole] | – | – | 2.5 | – | Relative % (oxygen uptake rate) [2]: 17%
Brc1ccc2[nH]ccc2c1 [5-Br-Indole] | – | – | 0 | 0 | –
Clc1ccc2[nH]ccc2c1 [5-Cl-Indole] | – | – | 4 | 28 | –
Fc1ccc2[nH]ccc2c1 [5-F-Indole, 5-fluoroindole] | 50 | 5.9 | 13.5 | 93 | –
COc1ccc2[nH]ccc2c1 [5-MeO-Indole] | – | – | 1 | – | Relative % (oxygen uptake rate) [2]: 7%
O=[N+]([O-])c1ccc2[nH]ccc2c1 [5-NO2-Indole] | – | – | 0 | 0 | –
Oc1ccc2[nH]ccc2c1 [5-OH-Indole] | – | – | 3.5 | 24 | –
Clc1ccc2cc[nH]c2c1 [6-Cl-Indole] | – | – | 7 | 48 | –
Cc1cccc2cc[nH]c12 [7-Me-Indole] | 39 | 4.6 | 12.5 | 86 | –
Nc1ccccc1C(=O)O [Anthranilate, Anthranilic acid] | <1 | 0.6 | – | – | stimulation of oxygen uptake rate ([1]; whole resting cells): no significant stimulation
Cc1cc2nc3c(=O)[nH]c(=O)nc-3n(C[C@H](O)[C@H](O)[C@H](O)COP(=O)(O)OP(=O)(O)OC[C@H]3O[C@@H](n4cnc5c(N)ncnc54)[C@H](O)[C@@H]3O)c2cc1C [FAD, flavin adenine dinucleotide] | – | – | – | – | stimulation of activity by cofactor added to the assay [3]: 3 fold
Cc1cc2nc3c(=O)[nH]c(=O)nc-3n(C[C@H](O)[C@H](O)[C@H](O)COP(=O)(O)O)c2cc1C [FMN] | – | – | – | – | effect of added cofactor on activity [3]: no effect
O=S(=O)([O-])[O-].O=S(=O)([O-])[O-].[Fe+2].[NH4+].[NH4+] [Fe^++, Fe(NH4)2SO4] | – | – | – | – | effect of added cofactor on activity [3]: stimulatory effect
c1ccc2[nH]ccc2c1 [Indole] | 100 | 11.8 | 14.5 | 100 | Oxygen Uptake Rate, Rate After 4 h Induction with Indole ([4]; induced with indole 0.2 g/l at 16 h growth, before re-addition): 14.4 O2 %/min/ODU and 13.3 O2 %/min/ODU and 14.1 O2 %/min/ODU and 12.1 O2 %/min/ODU; Oxygen Uptake Rate, Rate 3 h After Re-Addition [4]: 13.8 O2 %/min/ODU; support of growth as carbon source (words) [5]: good carbon source; concentration above which toxic ([5]; liquid culture): exceeded 400 mg/L; conversion of indole to indigo ([6]; 4.0 mM NADPH as electron donor, from absorption at 610 nm in DMF): 20%
Oc1c[nH]c2ccccc12 [Indoxyl, 3-hydroxyindole] | 177 | 20.9 | – | – | increase in oxygen uptake rate ([1]; relative to indole): 1.7 fold
O=C1Nc2ccccc2C1=O [Isatin, 2,3-dioxoindole] | – | – | 0 | 0 | –
NC(=O)C1=CN([C@@H]2O[C@H](COP(=O)(O)OP(=O)(O)OC[C@H]3O[C@@H](n4cnc5c(N)ncnc54)[C@H](OP(=O)(O)O)[C@@H]3O)[C@@H](O)[C@H]2O)C=CC1 [NADPH, nicotinamide adenine phosphate dinucleotide] | – | – | – | – | rate of indole removal relative to that observed with NADH ([6]; 4.0 mM NADPH instead of NADH, cell extract 0.57 mg/ml, pH 8): approximately 60%
c1ccc2ccccc2c1 [Naphthalene] | 9 | 1.1 | – | – | Relative % (oxygen uptake rate) ([1]; listed as naphthalene): 9%; activity of the enzyme with the substrate [2]: very low activity; support of growth as carbon source (words) [5]: did not support growth; support of growth as carbon source (words) ([5]; listed as naphthalene): not to support growth
O=C(O)CCC(=O)O [Succinate] | – | – | – | – | Oxygen Uptake Rate, Rate 3 h After Re-Addition [4]: 1.8 O2 %/min/ODU
c1ccc2sccc2c1 [Thianaphthene] | 26 | 3.1 | 1 | 7 | –
C1=Cc2ccccc2C1 [indene] | – | – | – | – | 2-indanone, single detectable product, share of total ion current ([6]; crude SCF with NADPH, GC/MS): approximately 20%
